The target of experiment [1] is human recombinant GST cleaved CSNK1D (Homo sapiens (Human), UniProt P48730). As to the kind of experiment: Purified enzyme assay (ADP-Glo Kinase Assay). Conditions: 2 nM CSNK1D, peptide substrate 150 μM, ATP 20 μM, 45 minutes room temperature. In kind it is biochemical.
The target of experiment [2] is human CSNK1D tagged with nanoluciferase (Homo sapiens (Human), UniProt P48730). The experiment in a line: Whole Cell nBRET CSNK1D Binding Assay. Conditions: living CHO cells stably expressing human CSNK1D-nanoluciferase; NanoBret tracer 130 nM; 2 hours 37° C.; read-out: CSNK1D BRET IC50. An outline of the steps: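 Live CHO cells stably expressing nanoluciferase-tagged CSNK1D, seeded in serum-free OptiMEM, received compound dose-response plus NanoBRET tracer (130 nM) for 2 h at 37 °C.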
human CSNK1D tagged with nanoluciferase, sequence (P48730 whole entry): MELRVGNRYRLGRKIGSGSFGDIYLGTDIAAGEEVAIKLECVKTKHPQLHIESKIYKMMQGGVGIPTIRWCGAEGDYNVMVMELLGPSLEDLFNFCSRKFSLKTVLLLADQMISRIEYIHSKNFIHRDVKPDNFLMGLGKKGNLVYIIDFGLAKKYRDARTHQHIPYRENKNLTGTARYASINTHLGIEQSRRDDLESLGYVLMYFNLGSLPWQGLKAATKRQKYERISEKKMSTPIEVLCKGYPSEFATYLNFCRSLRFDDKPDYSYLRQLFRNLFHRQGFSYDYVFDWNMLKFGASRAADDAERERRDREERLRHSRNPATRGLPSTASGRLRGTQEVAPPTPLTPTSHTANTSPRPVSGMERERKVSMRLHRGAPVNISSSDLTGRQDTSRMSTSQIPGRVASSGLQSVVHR
(In general: BRET reads energy transfer from a luciferase to a nearby fluorophore.)

SMILES strings stand for the structures. Where a name gives a salt, the structure may show the parent alone. Bounds are passed on as bounds.

human recombinant GST cleaved CSNK1D, sequence (P48730 whole entry): as above

Consider `CC(C)Cn1cc(-c2ccnc3[nH]ccc23)c(-c2ccc(F)cn2)n1` [Example 61, 4-[3-(5-Fluoro-2-pyridyl)-1-isobutyl-pyrazol-4-yl]-1H-pyrrolo[2,3-b]pyridine], for which, in experiment [1], the half-maximal activity concentration (AC50) was determined as 14 nM. Also, the concentration for half-maximal inhibition (IC50) in experiment [2] is 115 nM.
For `Cn1cc(-c2ccnc3[nH]ccc23)c(-c2ccns2)n1` [Example 12, 5-(1-Methyl-4-(1H-pyrrolo[2,3-b]pyridin-4-yl)-1H-pyrazol-3-yl)isothiazole] the same measures were 50 nM and 678 nM.
For `CC(C)n1cc(-c2ccnc3[nH]ncc23)c(-c2ccc(F)cn2)n1` [Example 59, 4-(3-(5-Fluoropyridin-2-yl)-1-isopropyl-1H-pyrazol-4-yl)-1H-pyrazolo[3,4-b]pyridine] the same measures were 44 nM and 326 nM.
The corresponding values for `Cn1cc(-c2ccnc3ccc(C#N)cc23)c(-c2ccc(F)cn2)n1` [Example 150, 4-[3-(5-Fluoro-2-pyridyl)-1-methyl-pyrazol-4-yl]quinoline-6-carbonitrile] are 113 nM and 1820 nM.
On to `Cn1cc(-c2ccnc3[nH]cc(Cl)c23)c(-c2ccc(F)cn2)n1` [Example 76, 3-Chloro-4-[3-(5-fluoro-2-pyridyl)-1-methyl-pyrazol-4-yl]-1H-pyrrolo[2,3-b]pyridine], for which the AC50 in experiment [1] came out at 1 nM. In addition, the IC50 in experiment [2] amounted to 17 nM.
For `COc1ncc(-c2nn(C)cc2-c2cc(C)nc3[nH]ncc23)cc1Cl` [Example 142, 4-[3-(5-Chloro-6-methoxy-3-pyridyl)-1-methyl-pyrazol-4-yl]-6-methyl-1H-pyrazolo[3,4-b]pyridine], the AC50 in experiment [1] came to 28 nM. Also, the half-inhibitory concentration (IC50) in experiment [2] worked out at 382 nM.
The corresponding values for `Cn1cc(-c2ncnc3[nH]ccc23)c(-c2ccc(F)cn2)n1` [Example 102, 4-(3-(5-Fluoropyridin-2-yl)-1-methyl-1H-pyrazol-4-yl)-7H-pyrrolo[2,3-d]pyrimidine] are 48 nM and 1280 nM.
On to `Cc1cc(-c2cn(C)nc2-c2ccc(F)cn2)c2cn[nH]c2n1` [Example 99, 4-(3-(5-Fluoropyridin-2-yl)-1-methyl-1H-pyrazol-4-yl)-6-methyl-1H-pyrazolo[3,4-b]pyridine], for which, in experiment [1], the concentration at half-maximal activity (AC50) worked out at 11 nM. For the same compound, in experiment [2], the IC50 turned out to be 238 nM.
On to `Cn1cc(-c2ccnc3[nH]cc(F)c23)c(-c2ccc(F)cn2)n1` [Example 77, 3-Fluoro-4-[3-(5-fluoro-2-pyridyl)-1-methyl-pyrazol-4-yl]-1H-pyrrolo[2,3-b]pyridine], for which the half-maximal activity concentration (AC50) in experiment [1] was 7 nM. In addition, the 50% inhibitory concentration (IC50) in experiment [2] is 53 nM.
For the compound `CCC(=O)Nc1cc(-c2cn(C)nc2-c2ccc(F)cn2)ccn1` [Example 1, N-(4-(3-(5-Fluoropyridin-2-yl)-1-methyl-1H-pyrazol-4-yl)pyridin-2-yl)propionamide], the AC50 in experiment [1] worked out at 5 nM. In experiment [2], the IC50 came out at 107 nM.
As for `Cn1cc(-c2ccnc3[nH]ccc23)c(-c2ccc(OC(F)F)cn2)n1` [Example 35, 4-[3-[5-(Difluoromethoxy)-2-pyridyl]-1-methyl-pyrazol-4-yl]-1H-pyrrolo[2,3-b]pyridine], the AC50 in experiment [1] came out at 9180 nM. Besides, in experiment [2], the half-maximal inhibitory concentration (IC50) is more than 10000 nM.
As for `Cn1cc(-c2c(CC3COC3)cnc3[nH]ccc23)c(-c2ccc(F)cn2)n1` [Example 95, 4-(3-(5-Fluoropyridin-2-yl)-1-methyl-1H-pyrazol-4-yl)-5-(oxetan-3-ylmethyl)-1H-pyrrolo[2,3-b]pyridine], the AC50 in experiment [1] was 2 nM. Further, the IC50 in experiment [2] amounted to 376 nM.
With `Cn1cc(-c2ccnc3[nH]ccc23)c(-c2ccncn2)n1` [Example 44, 4-(1-Methyl-3-pyrimidin-4-yl-pyrazol-4-yl)-1H-pyrrolo[2,3-b]pyridine], the concentration at half-maximal activity (AC50) in experiment [1] was determined as 54 nM. Besides, in experiment [2], the concentration for half-maximal inhibition (IC50) was 469 nM.
The corresponding values for `Cc1cc(-c2cn(C)nc2-c2ncco2)c2cn[nH]c2n1` [Example 8, 2-(1-Methyl-4-(6-methyl-1H-pyrazolo[3,4-b]pyridin-4-yl)-1H-pyrazol-3-yl)oxazole] are 783 nM and more than 10000 nM.
Take `Cc1cc(-c2cn(C(F)F)nc2-c2ccc(F)cn2)c2cn[nH]c2n1` [Example 67, 4-(1-(Difluoromethyl)-3-(5-fluoropyridin-2-yl)-1H-pyrazol-4-yl)-6-methyl-1H-pyrazolo[3,4-b]pyridine]: the AC50 in experiment [1] is 18 nM. The IC50 in experiment [2] was 1310 nM.
For `Cc1cc(-c2cn(C)nc2-c2ccncc2Cl)c2cn[nH]c2n1` [Example 138, 4-[3-(3-Chloro-4-pyridyl)-1-methyl-pyrazol-4-yl]-6-methyl-1H-pyrazolo[3,4-b]pyridine] the same measures were 217 nM and 8620 nM.
For `Cn1cc(-c2ccnc3cn[nH]c23)c(-c2ccc(F)cn2)n1` [Example 5, 7-(3-(5-Fluoropyridin-2-yl)-1-methyl-1H-pyrazol-4-yl)-1H-pyrazolo[4,3-b]pyridine] the same measures were 15 nM and 460 nM.
The corresponding values for `FCCn1cc(-c2ccnc3[nH]ccc23)c(-c2ccc(F)cn2)n1` [Example 68, 4-[1-(2-Fluoroethyl)-3-(5-fluoro-2-pyridyl)pyrazol-4-yl]-1H-pyrrolo[2,3-b]pyridine] are 4 nM and 80 nM.
`Cn1cc(-c2ccnc3cc(Cl)ccc23)c(-c2ccc(F)cn2)n1` [Example 105, 7-Chloro-4-[3-(5-fluoro-2-pyridyl)-1-methyl-pyrazol-4-yl]quinoline]: the concentration at half-maximal activity (AC50) in experiment [1] was found to be 25 nM. For the same compound, in experiment [2], the concentration for half-maximal inhibition (IC50) came out at 817 nM.
For `Cn1cc(-c2ccnc3[nH]c(C4(O)COC4)cc23)c(-c2ccc(F)cn2)n1` [Example 94, 3-(4-(3-(5-Fluoropyridin-2-yl)-1-methyl-1H-pyrazol-4-yl)-1H-pyrrolo[2,3-b]pyridin-2-yl)oxetan-3-ol] the same measures were 10 nM and 187 nM.
For `CC(C)Cn1cc(-c2ccnc3[nH]ncc23)c(-c2ccc(F)cn2)n1` [Example 62, 4-(3-(5-Fluoropyridin-2-yl)-1-isobutyl-1H-pyrazol-4-yl)-1H-pyrazolo[3,4-b]pyridine], the half-maximal activity concentration (AC50) in experiment [1] was 8 nM. Further, in experiment [2], the IC50 is 477 nM.
As for `COc1nc(-c2nn(C)cc2-c2cc(C)nc3[nH]ncc23)ccc1Cl` [Example 42, 4-(3-(5-Chloro-6-methoxypyridin-2-yl)-1-methyl-1H-pyrazol-4-yl)-6-methyl-1H-pyrazolo[3,4-b]pyridine], the half-maximal activity concentration (AC50) in experiment [1] was found to be 134 nM. Also, the IC50 in experiment [2] came out at 2770 nM.
For `Cn1cc(-c2ccnc3[nH]ccc23)c(-c2ncco2)n1` [Example 7, 2-(1-Methyl-4-(1H-pyrrolo[2,3-b]pyridin-4-yl)-1H-pyrazol-3-yl)oxazole] the same measures were 38 nM and 128 nM.
For `COc1ccc2c(-c3cn(C)nc3-c3ccc(F)cn3)cc(C)nc2c1` [Example 110, 4-[3-(5-Fluoro-2-pyridyl)-1-methyl-pyrazol-4-yl]-7-methoxy-2-methyl-quinoline] the same measures were 5360 nM and more than 10000 nM.
The corresponding values for `CC(C)c1n[nH]c2nccc(-c3cn(C)nc3-c3ccc(F)cn3)c12` [Example 122, 4-[3-(5-Fluoro-2-pyridyl)-1-methyl-pyrazol-4-yl]-3-isopropyl-1H-pyrazolo[3,4-b]pyridine] are 15 nM and more than 10000 nM.
On to `COc1cccc(-c2nn(C)cc2-c2cc(C)nc3[nH]ncc23)n1` [Example 34, 4-(3-(6-Methoxypyridin-2-yl)-1-methyl-1H-pyrazol-4-yl)-6-methyl-1H-pyrazolo[3,4-b]pyridine], for which the half-maximal activity concentration (AC50) in experiment [1] turned out to be 100 nM. In addition, the IC50 in experiment [2] worked out at 1980 nM.
For `Cn1cc(-c2ccnc3[nH]ccc23)c(-c2cncc(F)c2)n1` [Example 21, 4-[3-(5-Fluoro-3-pyridyl)-1-methyl-pyrazol-4-yl]-1H-pyrrolo[2,3-b]pyridine], the concentration at half-maximal activity (AC50) in experiment [1] turned out to be 14 nM. Further, the IC50 in experiment [2] came out at 356 nM.
The corresponding values for `Cc1cc(-c2cn(CC(C)C)nc2-c2ccc(F)cn2)c2cn[nH]c2n1` [Example 63, 4-(3-(5-Fluoropyridin-2-yl)-1-isobutyl-1H-pyrazol-4-yl)-6-methyl-1H-pyrazolo[3,4-b]pyridine] are 6 nM and 253 nM.
For `Cn1cc(-c2ccnc3[nH]ccc23)c(-c2ncc(F)cc2F)n1` [Example 37, 4-[3-(3,5-Difluoro-2-pyridyl)-1-methyl-pyrazol-4-yl]-1H-pyrrolo[2,3-b]pyridine] the same measures were 15 nM and 78 nM.
For `Cn1cc(-c2ccnc3[nH]ncc23)c(-c2ncc(F)cc2F)n1` [Example 38, 4-(3-(3,5-Difluoropyridin-2-yl)-1-methyl-1H-pyrazol-4-yl)-1H-pyrazolo[3,4-b]pyridine], the concentration at half-maximal activity (AC50) in experiment [1] is 46 nM. For the same compound, the concentration for half-maximal inhibition (IC50) in experiment [2] turned out to be 390 nM.
Consider `Cc1nc(-c2cn(C)nc2-c2ccc(F)cn2)c2cc[nH]c2n1` [Example 123, 4-[3-(5-Fluoro-2-pyridyl)-1-methyl-pyrazol-4-yl]-2-methyl-7H-pyrrolo[2,3-d]pyrimidine Trifluoroacetate Salt], for which the AC50 in experiment [1] amounted to 4 nM. In experiment [2], the IC50 is 234 nM.
The corresponding values for `Cn1cc(-c2ccnc3cccnc23)c(-c2ccc(F)cn2)n1` [Example 126, 4-[3-(5-Fluoro-2-pyridyl)-1-methyl-pyrazol-4-yl]-1,5-naphthyridine] are 26 nM and 4620 nM.
As for `CC(C)c1cc2c(-c3cn(C)nc3-c3ccc(F)cn3)ccnc2[nH]1` [Example 83, 4-(3-(5-Fluoropyridin-2-yl)-1-methyl-1H-pyrazol-4-yl)-2-isopropyl-1H-pyrrolo[2,3-b]pyridine], in experiment [1], the half-maximal activity concentration (AC50) stood at 54 nM. Further, the IC50 in experiment [2] is 1570 nM.
Take `COc1cc2c(-c3cn(C)nc3-c3ccc(F)cn3)ccnc2cc1F` [Example 111, 7-Fluoro-4-[3-(5-fluoro-2-pyridyl)-1-methyl-pyrazol-4-yl]-6-methoxy-quinoline]: the AC50 in experiment [1] amounted to 28 nM. In addition, in experiment [2], the IC50 is 491 nM.

By AC50 is commonly meant the concentration giving half of the maximal activity seen. What is called IC50 is the point on the concentration scale where inhibition reaches its midpoint.

These data come from patent US20230339900A1, “CASEIN KINASE 1 DELTA MODULATORS” (Janssen Pharmaceutica NV, priority 2020, published 2023).
